Assay results reported in US20250275976A1, “Methods of Treating Neuroinflammatory Conditions” (Athira Pharma, Inc., priority 2022, published 2025).
Square brackets hold non-standard residues; d marks the D form. Peptide text beside a SMILES is read from it. * marks the point of attachment. Hexanoyl = CCCCCC(=O)*; Ahx = NCCCCCC(=O)O

Columns and labels:
BV2 microglia [1] = assay: pAKT in LPS-stimulated BV2 microglia (HTRF); type: cell-based; details: for Inflammatory Readout: pAKT (significance of reduction): LPS pre-treatment 45 minutes, compound 1 hour
Excerpt: (§1) Microglia are the resident immune cells of the brain and, when activated by pathological conditions, promote broad-spectrum neuroinflammation. When activated by toxic exogenous substances, microglia produce excessive reactive oxygen species (ROS), nitric oxide (NO), and proinflammatory cytokines, which further propagates disease pathogenesis. BV2 microglia were used as an in-vitro cell model to evaluate mechanisms relevant to inflammation in the CNS. Upon activation of TLR4 with LPS, microglia are activated and trigger excessive oxidative stress, a process that is partially mediated by AKT phosphorylation (pAKT) and activation. Microglia activation also leads to a range of changes in gene expression.
(§2) Compound A19 active metabolite (Compound A19-AM) was investigated for whether it could reduce the inflammatory effect of LPS in microglia. Inflammatory activation of BV2 microglia cells was stimulated by pre-treatment with LPS for 45 minutes, followed by the addition of test compound for 1 hour (pAKT) or 23.5 hours (NO and gene expression panel). For pAKT measurement, cells were lysed and the pAKT measurement was conducted using the HTRF system. For NO production, culture supernatants were collected and assessed for the presence of nitrite, a primary metabolic product of nitric oxide.
(§3) Quantification of nitrite production in cell culture supernatants was accomplished using the Griess Reagent System (Promega, G2930). Measurement of pAKT was assessed utilizing Phospho-AKT 1/2/3 (Ser473) […] Cellular Detection Kit (CisBio, 64AKSPEH).
(§4) Data analysis was performed via One-way ANOVA with Dunnett's multiple comparisons test compared to LPS-stimulated, vehicle treated cultures using Prism statistical software (GraphPad). Tabular data indicates significance of reduction in the indicated analyte at the indicated dose.

BV2 microglia [2] = assay: Nitrite production in LPS-stimulated BV2 microglia (Griess Reagent System); type: cell-based; design: key to Inflammatory Readout: Nitrite (significance of reduction): “NS” indicates a non-significant reduction NO production; “++” indicates a p value < 0.005 in Dunnett's multiple comparison; “+++” indicates a p value < 0.0005 in Dunnett's multiple comparison; details: for Inflammatory Readout: Nitrite (significance of reduction): LPS pre-treatment 45 minutes, compound 23.5 hours
Excerpt: as §1, §2, §3, §4

## CCCCCC(=O)N[C@@H](Cc1ccc(O)cc1)C(=O)N[C@H](C(=O)NCCCCCC(N)=O)[C@@H](C)CC [Compound A19 active metabolite, dihexa] (Hexanoyl-Tyr-Ile-[Ahx]-NH2)
BV2 microglia [1]; LPS-stimulated BV2
  AKT phosphorylation (result in words): significantly reduced
BV2 microglia [1]; dose 0.001 nM
  Inflammatory Readout: pAKT (significance of reduction): ++ (“++” indicates a p value < 0.005 in Dunnett's multiple comparison)
BV2 microglia [1]; dose 1 nM
  Inflammatory Readout: pAKT (significance of reduction): ++ (“++” indicates a p value < 0.005 in Dunnett's multiple comparison)
BV2 microglia [2]; LPS-stimulated BV2
  Production of nitrite (result in words): significantly reduced
BV2 microglia [2]; dose 0.01 nM
  Inflammatory Readout: Nitrite (significance of reduction): ++ (“++” indicates a p value < 0.005 in Dunnett's multiple comparison)
BV2 microglia [2]; dose 1 nM
  Inflammatory Readout: Nitrite (significance of reduction): +++ (“+++” indicates a p value < 0.0005 in Dunnett's multiple comparison)
BV2 microglia [2]; dose 10 nM
  Inflammatory Readout: Nitrite (significance of reduction): NS
